Key:
Assay in all cases: Binding assays for FABP3, FABP4, FABP5 and FABP7
[1] = biological target: Fatty acid-binding protein 5 (Homo sapiens, UniProt Q01469)
Method: (§1) Binding assays for FABP3, FABP4, FABP5 and FABP7 were carried out by fluorescence titrations. His-tagged FABPs were bacterially expressed in E. coli, purified using Ni Sepharose beads, and the equilibrium dissociation constants (Kd) that characterize their interactions with different inhibitor compounds were measured by fluorescence competition assays. The method entails two steps as described in e.g., Lin, Q. et al., “Ligand selectivity of the peroxisome proliferator-activated receptor alpha,” Biochemistry 38, 185-190, doi:10.1021/bi9816094 [pii](1999). In the first step, Kd for the association of the protein with the fluorescent fatty acid probe ANS was measured. Protein (2 μM) was titrated with ANS from a concentrated solution in DMSO. Ligand binding was monitored by following the increase in the fluorescence of the ligand upon binding to the protein, and Kd for the association of ANS with the each FABP was computed from titration curves as described in e.g., Norris, A. W. & Li, E., “Fluorometric titration of the CRABPs,” Methods Mol Biol 89, 123-139 (1998)). In the second step, Kds for binding of non-fluorescent ligands were measured by monitoring their ability to displace ANS in the binding pocket of the protein.

[2] = biological target: Fatty acid-binding protein, heart (Homo sapiens, UniProt P05413)
Method: as §1

[3] = biological target: Fatty acid-binding protein, adipocyte (Homo sapiens, UniProt P15090)
Method: as §1

[4] = biological target: Fatty acid-binding protein, brain (FABP7) (Homo sapiens, UniProt O15540)
Method: as §1

Chain of Fatty acid-binding protein, brain (FABP7) (O15540 whole entry): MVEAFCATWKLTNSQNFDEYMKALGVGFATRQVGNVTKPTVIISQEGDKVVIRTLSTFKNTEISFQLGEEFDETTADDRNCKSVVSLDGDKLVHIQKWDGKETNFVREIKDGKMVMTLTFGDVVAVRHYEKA
Chain of Fatty acid-binding protein, heart (P05413 whole entry): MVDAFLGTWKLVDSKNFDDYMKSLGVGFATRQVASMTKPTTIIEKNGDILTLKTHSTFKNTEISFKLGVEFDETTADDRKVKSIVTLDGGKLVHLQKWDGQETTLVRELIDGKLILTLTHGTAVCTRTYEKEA
Chain of Fatty acid-binding protein, adipocyte (P15090 whole entry): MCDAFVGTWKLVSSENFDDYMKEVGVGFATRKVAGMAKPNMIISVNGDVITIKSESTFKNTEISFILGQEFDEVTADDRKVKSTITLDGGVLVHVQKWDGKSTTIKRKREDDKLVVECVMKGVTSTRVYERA
Chain of Fatty acid-binding protein 5 (Q01469 whole entry): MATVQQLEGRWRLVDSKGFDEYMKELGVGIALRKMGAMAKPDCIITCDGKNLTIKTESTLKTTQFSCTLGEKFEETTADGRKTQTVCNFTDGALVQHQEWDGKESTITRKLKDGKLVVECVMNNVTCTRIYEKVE

Kd [1]: 0.011 µM | Kd [2]: 0.0608 µM | Kd [3]: 0.014 µM | Kd [4]: 0.043 µM
Structure (SMILES): CC(C)Oc1nc(NC(=O)CC(C)(C)CC(=O)O)c(Cl)cc1Cl [US20250325529, ID PD154]

From BindingDB's records for patent US20250325529 (Celloram, 2025)
